The values below come from patent US8106055B2, “Substituted amide compounds” (Gruenenthal GmbH, priority 2007, dated 2012).

Assay [1] addresses T1, human bradykinin 1 receptor (B1R) (Homo sapiens, UniProt P46663).
T1 construct: expressed in transfected cells; host or cells: CHO K1 cells
T1 sequence (P46663 1-353): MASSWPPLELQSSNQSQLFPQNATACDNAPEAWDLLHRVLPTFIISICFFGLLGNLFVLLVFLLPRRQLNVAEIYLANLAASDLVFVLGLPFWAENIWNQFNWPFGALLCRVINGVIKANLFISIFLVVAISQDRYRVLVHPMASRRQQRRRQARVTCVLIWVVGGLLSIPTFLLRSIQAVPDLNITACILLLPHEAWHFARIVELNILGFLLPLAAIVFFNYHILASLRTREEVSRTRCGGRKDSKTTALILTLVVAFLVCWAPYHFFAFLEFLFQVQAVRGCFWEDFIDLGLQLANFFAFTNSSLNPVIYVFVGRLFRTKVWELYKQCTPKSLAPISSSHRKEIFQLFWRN
Put plainly: Functional investigation on the human bradykinin 1 receptor (B1R), Ca2+ FLIPR assay in CHO K1 hB1R cells. It counts as cell-based. Conditions: CHO-K1, B1R antagonism human; test substance 10 μM; Ca2+ FLIPR, CHO K1 hB1R cells; read-out: B1R Ant. h [10 μM] % Inhibition. The method, boiled down:
(§1)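 Peak Ca2+-dependent fluorescence in B1R-transfected CHO K1 cells measures antagonism of an EC80 agonist challenge given 10-20 min after compound. Agonist is Lys-Des-Arg9-bradykinin for human, Des-Arg9-bradykinin for rat receptor.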

The target in assay [2] is T2, bradykinin 1 receptor (B1R) of the rat (Rattus norvegicus, UniProt P97583).
T2 construct: expressed in transfected cells; host or cells: CHO K1 cells
T2 sequence (P97583 1-337): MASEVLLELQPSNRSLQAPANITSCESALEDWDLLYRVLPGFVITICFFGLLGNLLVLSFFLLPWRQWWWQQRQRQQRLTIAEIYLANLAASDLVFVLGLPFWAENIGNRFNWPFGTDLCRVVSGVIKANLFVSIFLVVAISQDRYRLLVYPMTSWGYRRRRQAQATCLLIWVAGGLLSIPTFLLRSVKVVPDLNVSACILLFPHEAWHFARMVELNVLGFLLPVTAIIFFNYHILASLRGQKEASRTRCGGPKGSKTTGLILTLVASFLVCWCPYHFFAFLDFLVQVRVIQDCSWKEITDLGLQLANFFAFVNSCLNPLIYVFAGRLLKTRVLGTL
Put plainly: Functional investigation on the rat bradykinin 1 receptor (B1R), Ca2+ FLIPR assay in CHO K1 rB1R cells. It counts as cell-based. Conditions: CHO-K1, B1R antagonism rat; test substance 10 μM; Ca2+ FLIPR, CHO K1 rB1R cells; read-out: B1R Ant. r [10 μM] % Inhibition. The method, boiled down: as §1

Regarding `Cc1cc(C)c(S(=O)(=O)N2CCC(OCC(=O)NCC3CCC(C(c4ccccc4)N(C)C)CC3)C2)c(C)c1` (stereo not drawn) [Example 26, N-((4-((dimethylamino)(phenyl)methyl)cyclohexyl)methyl)-2-(1-(mesitylsulfonyl)pyrrolidin-3-yloxy)acetamide], the inhibition at 10 µM in assay [1] was 51%; in assay [2], 38%.
In the same order, the values of `COc1ccc(S(=O)(=O)N2CCCCC2COCC(=O)NCCC2CCC(C(c3cccc(F)c3)N(C)C)CC2)cc1` (stereo not drawn) [Example 180, N-(2-(4-((dimethylamino)(3-fluorophenyl)methyl)cyclohexyl)ethyl)-2-((1-(4-methoxyphenylsulfonyl)piperidin-2-yl)methoxy)acetamide] are 62% and 68%.
In the same order, the values of `COc1ccc(S(=O)(=O)N2Cc3ccccc3CC2COCC(=O)NCCC2CCC(C(c3cccc(F)c3)N(C)C)CC2)cc1` (stereo not drawn) [Example 190, N-(2-(4-((dimethylamino) (3-fluorophenyl)methyl)cyclohexyl)ethyl)-2-((2-(4-methoxyphenylsulfonyl)-1,2,3,4-tetrahydroisoquinolin-3-yl)methoxy)acetamide] are 29% and 18%.
In the same order, the values of `COc1cc(C)c(S(=O)(=O)N2CCCC(OCC(=O)NC3CCC(C(c4cccs4)N(C)C)CC3)C2)c(C)c1C` (stereo not drawn) [Example 144, N-(4-((dimethylamino)(thiophen-2-yl)methyl)cyclohexyl)-2-(1-(4-methoxy-2,3,6-trimethylphenylsulfonyl)piperidin-3-yloxy)acetamide] are 20% and 4%.
Regarding `CN(C)C(c1cccc(F)c1)C1CCC(NC(=O)COCCN(C)S(=O)(=O)c2c(Cl)cccc2Cl)CC1` (stereo not drawn) [Example 171, 2-(2-(2,6-dichloro-N-methylphenylsulfonamido)ethoxy)-N-(4-((dimethylamino)(3-fluorophenyl)methyl)cyclohexyl)acetamide], the results for the inhibition at 10 µM in assay [1] and in assay [2] were 68% and 43%, respectively.
The matching figures for `CN(C)C(c1ccccc1)C1CCC(CNC(=O)COCCN(C)S(=O)(=O)c2c(Cl)cccc2Cl)CC1` (stereo not drawn) [Example 13, 2-(2-(2,6-dichloro-N-methylphenylsulfonamido)ethoxy)-N-((4-((dimethylamino)(phenyl)methyl)cyclohexyl)methyl)acetamide]: 99% and 44%.
On to `CN(C)C(c1cccs1)C1CCC(NC(=O)COC2CCN(S(=O)(=O)c3ccc(F)cc3)C2)CC1` (stereo not drawn) [Example 28, N-(4-((dimethylamino)(thiophen-2-yl)methyl)cyclohexyl)-2-(1-(4-fluorophenylsulfonyl)pyrrolidin-3-yloxy)acetamide], for which the figures for the inhibition at 10 µM in assay [1] and in assay [2] were -7% and 17%, respectively.
Regarding `COc1cc(C)c(S(=O)(=O)N2CCC(CCOCC(=O)NC3CCC(C(c4ccc(F)cc4)N(C)C)CC3)CC2)c(C)c1C` (stereo not drawn) [Example 178, N-(4-((dimethylamino)(4-fluorophenyl)methyl)cyclohexyl)-2-(2-(1-(4-methoxy-2,3,6-trimethylphenylsulfonyl)piperidin-4-yl)ethoxy)acetamide], the inhibition at 10 µM was found to be 24% in assay [1] and 12% in assay [2].
In the same order, the values of `Cc1cc(C)c(S(=O)(=O)N2CCC(OCC(=O)NCC3CCC(C(c4cccc(F)c4)N(C)C)CC3)C2)c(C)c1` (stereo not drawn) [Example 141, N-((4-((dimethylamino)(3-fluorophenyl)methyl)cyclohexyl)methyl)-2-(1-(mesitylsulfonyl)pyrrolidin-3-yloxy)acetamide] are 54% and 26%.
The matching figures for `COc1cc(C)c(S(=O)(=O)N2CCCC(OCC(=O)NCC3CCC(C(c4ccccc4)N(C)C)CC3)C2)c(C)c1C` (stereo not drawn) [Example 29, N-((4-((dimethylamino)(phenyl)methyl)cyclohexyl)methyl)-2-(1-(4-methoxy-2,3,6-trimethylphenylsulfonyl)piperidin-3-yloxy)acetamide]: 35% and 17%.
As for `COc1ccc(S(=O)(=O)N2CCCCC2COCC(=O)NCCC2CCC(C(c3cccc(F)c3)N(C)C)CC2)cc1OC` (stereo not drawn) [Example 191, 2-((1-(3,4-dimethoxyphenylsulfonyl)piperidin-2-yl)methoxy)-N-(2-(4-((dimethylamino)(3-fluorophenyl)methyl)cyclohexyl)ethyl)acetamide], the inhibition at 10 µM in assay [1] is -16%; in assay [2], -14%.
In the same order, the values of `CN(C)C(c1cccs1)C1CCC(NC(=O)COCCN(C)S(=O)(=O)c2cccc(C(F)(F)F)c2)CC1` (stereo not drawn) [Example 152, N-(4-((dimethylamino)(thiophen-2-yl)methyl)cyclohexyl)-2-(2-(N-methyl-3-(trifluoromethyl)phenylsulfonamido)ethoxy)acetamide] are 16% and 4%.
As for `COc1cc(C)c(S(=O)(=O)N2CCC(OCC(=O)NCCC3CCC(C(c4cccs4)N(C)C)CC3)CC2)c(C)c1C` (stereo not drawn) [Example 177, N-(2-(4-((dimethylamino)(thiophen-2-yl)methyl)cyclohexyl)ethyl)-2-(1-(4-methoxy-2,3,6-trimethylphenylsulfonyl)piperidin-4-yloxy)acetamide], the results for the inhibition at 10 µM in assay [1] and in assay [2] were 10% and 45%, respectively.
The matching figures for `COc1ccc(S(=O)(=O)N2CCC(OCC(=O)NCC3CCC(C(c4ccccc4)N(C)C)CC3)C2)cc1OC` (stereo not drawn) [Example 22, 2-(1-(3,4-dimethoxyphenylsulfonyl)pyrrolidin-3-yloxy)-N-((4-((dimethylamino)(phenyl)methyl)cyclohexyl)methyl)acetamide]: 0% and 26%.
In the same order, the values of `COc1ccc(S(=O)(=O)N(C)CCOCC(=O)NCC2CCC(C(c3ccccc3)N(C)C)CC2)cc1OC` (stereo not drawn) [Example 169, 2-(2-(3,4-dimethoxy-N-methylphenylsulfonamido)ethoxy)-N-((4-((dimethylamino)(phenyl)methyl)cyclohexyl)methyl)acetamide] are -4% and -15%.
The matching figures for `COc1ccc(S(=O)(=O)N2CCCC2COCC(=O)NC2CCC(C(c3ccccc3)N(C)C)CC2)cc1` (stereo not drawn) [Example 182, N-(4-((dimethylamino)(phenyl)methyl)cyclohexyl)-2-((1-(4-methoxyphenylsulfonyl)pyrrolidin-2-yl)methoxy)acetamide]: 9% and 25%.
In the case of `CN(C)C(c1cccs1)C1CCC(CCNC(=O)COC2CCN(S(=O)(=O)c3ccc(F)cc3)C2)CC1` (stereo not drawn) [Example 138, N-(2-(4-((dimethylamino)(thiophen-2-yl)methyl)cyclohexyl)ethyl)-2-(1-(4-fluorophenylsulfonyl)pyrrolidin-3-yloxy)acetamide], the results for the inhibition at 10 µM in assay [1] and in assay [2] were 2% and 30%, respectively.
As to `CN(C)C(c1cccc(F)c1)C1CCC(CNC(=O)COCCN(C)S(=O)(=O)c2c(Cl)cc(Cl)cc2Cl)CC1` (stereo not drawn) [Example 188, N-((4-((dimethylamino)(3-fluorophenyl)methyl)cyclohexyl)methyl)-2-(2-(2,4,6-trichloro-N-methylphenylsulfonamido)ethoxy)acetamide], the inhibition at 10 µM in assay [1] was 102%; in assay [2], 13%.
The matching figures for `COc1ccc(S(=O)(=O)N2CCC(OCC(=O)NCC3CCC(C(c4cccc(F)c4)N(C)C)CC3)C2)cc1OC` (stereo not drawn) [Example 184, 2-(1-(3,4-dimethoxyphenylsulfonyl)pyrrolidin-3-yloxy)-N-((4-((dimethylamino)(3-fluorophenyl)methyl)cyclohexyl)methyl)acetamide]: -29% and 38%.
The matching figures for `COc1cc(C)c(S(=O)(=O)N(C)CCOCC(=O)NCC2CCC(C(c3ccccc3)N(C)C)CC2)c(C)c1` (stereo not drawn) [Example 137, N-((4-((dimethylamino)(phenyl)methyl)cyclohexyl)methyl)-2-(2-(4-methoxy-N,2,6-trimethylphenylsulfonamido)ethoxy)acetamide]: 102% and 100%.
Turning to `CN(C)C(c1cccc(F)c1)C1CCC(CNC(=O)COC2CCCCC2N(C)S(=O)(=O)c2ccc(Cl)c(Cl)c2)CC1` (stereo not drawn) [Example 164, 2-(2-(3,4-dichloro-N-methylphenylsulfonamido)cyclohexyloxy)-N-((4-((dimethylamino)(3-fluorophenyl)methyl)cyclohexyl)methyl)acetamide], the inhibition at 10 µM in assay [1] worked out at 14%; in assay [2], 17%.
